Data on 16 compounds can be found in patent publication US10766865B2, “PKM2 modulators and methods for their use” (TOLERO PHARMACEUTICALS, INC., priority 2012, dated 2020).

Usually EC50 stands for the concentration that produces a half-maximal response.

SMILES strings stand for the structures. Read-outs that look alike come from different tables or passages of the source.

In assay [1] the test system is PC3 cells. The assay can be described thus: Cell Proliferation Assay, PC3. As to conditions: Homo sapiens, PC-3; PC3, BME media lacking nonessential amino acids, 72 hours, ATPlite; read-out: Percent viability (EC50), Average. It is filed as cell-based. As to the method:
(§1) Cells were seeded at 5000 cells per well (in 96-well plate) in BME media lacking nonessential amino acids+5% dialyzed serum. After 18 hours, DMSO or compound in 0.1% final concentration DMSO was added.
(§2) Percent viability (EC50) of A549 and PC3 cells was tested against certain exemplary compounds according to the above general procedures.
For orientation: ATP-based viability assays read luminescence as a measure of living cells.

In assay [2] the target is T1, PKM2 (Homo sapiens, UniProt P14618). The assay can be described thus: PKM2 Biochemical Assay. As to conditions: for Max. Resp.: % maximum response in a biochemical assay as compared with Fructose 1,6-bisphosphate; for Emax: read-out: % FBP (extent of maximal activation, relative to FBP); for Maximal PKM2 activity: relative to activity in DMSO controls (normalized to 100%), FIG. 1B.
Target sequence in this assay (P14618 whole entry): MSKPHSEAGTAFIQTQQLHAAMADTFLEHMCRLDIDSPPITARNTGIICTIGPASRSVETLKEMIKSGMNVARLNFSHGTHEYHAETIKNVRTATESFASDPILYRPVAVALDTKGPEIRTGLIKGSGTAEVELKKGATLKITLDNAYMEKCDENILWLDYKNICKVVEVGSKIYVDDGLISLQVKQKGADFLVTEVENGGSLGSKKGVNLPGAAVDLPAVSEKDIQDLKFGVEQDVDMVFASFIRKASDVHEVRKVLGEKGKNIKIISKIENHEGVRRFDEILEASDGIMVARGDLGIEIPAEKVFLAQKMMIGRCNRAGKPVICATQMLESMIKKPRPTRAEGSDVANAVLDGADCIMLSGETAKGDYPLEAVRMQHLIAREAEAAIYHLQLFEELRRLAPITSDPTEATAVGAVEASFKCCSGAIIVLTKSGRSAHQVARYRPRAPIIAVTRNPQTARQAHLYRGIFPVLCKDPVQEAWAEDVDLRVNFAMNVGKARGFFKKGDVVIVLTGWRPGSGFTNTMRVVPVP

Assay [3] has as its system A549 cells. The assay is described as follows: Cell Proliferation Assay, A549. The class given is cell-based. As to conditions: Homo sapiens; A549, BME media lacking nonessential amino acids, 72 hours, ATPlite; read-out: Percent viability (EC50), Average. The method, then:
as §1, §2

Assay [4] concerns the target T1, PKM2. The assay is described as follows: Cell-Based Pyruvate Kinase Activity Assay, A549. Details: host or cells: A549 or NCI-H1299 lung cancer cells. As to conditions: A549, 30 minutes with compound, n = 4; read-out: Cellular PKM2 activation EC50. The method, then:
(§3) Cell-Based Pyruvate Kinase Activity Assay
(§4) A549 or NCI-H1299 lung cancer cells were plated at 20,000 cells per well (96-well plate) in MEM media plus 10% FBS, with no additional glutamine or pyruvate. Following overnight incubation, cells were washed with PBS followed by 4 hour incubation in MEM media. Compounds were added to the cells in 1% final concentration DMSO. After 30 minutes, cells were lysed, and pyruvate kinase activity in lysates was determined by Pyruvate Kinase Activity Assay (BioVision, Milpitas, Calif.). Maximum velocity values were calculated from the kinetic data, and AC50 values were determined using Prism GraphPad Software (La Jolla, Calif.). Compound washout experiments were as described above, except after a 30 minute incubation with Example 244 (469 nM), the cells were washed with PBS followed by the addition of MEM media for the indicated time period, lysed and pyruvate kinase activity determined. Results are tabulated in Table 3 and presented graphically in FIGS. 6A and 6B.
Target sequence in this assay (P14618 2-531 limits assumed): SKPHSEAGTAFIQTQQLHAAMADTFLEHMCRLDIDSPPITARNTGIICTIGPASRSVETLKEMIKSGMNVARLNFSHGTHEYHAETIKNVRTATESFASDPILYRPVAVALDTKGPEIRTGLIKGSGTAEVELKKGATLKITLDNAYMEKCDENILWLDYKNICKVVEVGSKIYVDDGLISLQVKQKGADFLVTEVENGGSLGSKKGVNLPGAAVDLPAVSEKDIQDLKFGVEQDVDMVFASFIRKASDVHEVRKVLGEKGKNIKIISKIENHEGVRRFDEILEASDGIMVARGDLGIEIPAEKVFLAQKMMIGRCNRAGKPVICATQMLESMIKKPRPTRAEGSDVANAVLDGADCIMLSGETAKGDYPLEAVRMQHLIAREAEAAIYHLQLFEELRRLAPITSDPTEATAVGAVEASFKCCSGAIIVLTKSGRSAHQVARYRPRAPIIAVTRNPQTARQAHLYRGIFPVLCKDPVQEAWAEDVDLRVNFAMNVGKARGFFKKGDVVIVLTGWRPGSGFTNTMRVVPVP

Assay [5] concerns the target T1, PKM2. The assay is described as follows: Cell-Based Pyruvate Kinase Activity Assay, NCI-H1299. More on the design: host or cells: A549 or NCI-H1299 lung cancer cells. As to conditions: NCI-H1299, 30 minutes with compound, n = 4; read-out: Cellular PKM2 activation EC50. As to the method:
as §3, §4
Target sequence in this assay (P14618 2-531 limits assumed): as above

The mark [6] stands for this setting: read-out: AC50 (concentration of half-maximal PKM2 activation), Table 2, n = 6 to 10.

For the compound `CO[C@H]1CC[C@H](N(Cc2ccccc2F)C(=O)c2cc(C(F)(F)F)n[nH]2)CC1` [Example 47, N-(2-FLUOROBENZYL)-N-(TRANS-4-METHOXYCYCLOHEXYL)-3-(TRIFLUOROMETHYL)-1H-PYRAZOLE-5-CARBOXAMIDE], the figures for the EC50 in assay [1] and in assay [3] were 383 nM and 188 nM, respectively. In addition, the “Max. Resp.” value in assay [2] is 89%.
For `CO[C@H]1CC[C@H](N(Cc2cccc(N)c2)C(=O)c2cc(C(F)(F)F)n[nH]2)CC1` [Example 54], in that order: 193 nM, 102 nM and 93%.
For `O=C(c1cc(C(F)(F)F)n[nH]1)N(CCC1CCS(=O)(=O)C1)Cc1ccccc1Cl` (stereo not drawn) [Example 62, N-(2-chlorobenzyl)-N-(2-(1,1-dioxidotetrahydrothiophen-3-yl)ethyl)-3-(trifluoromethyl)-1H-pyrazole-5-carboxamide], in that order: 166 nM, 108 nM and 105%.
As for `O=C(c1cc(C(F)(F)F)n[nH]1)N(CCC1CCS(=O)(=O)CC1)Cc1ccccc1Cl` [Example 75, N-(2-chlorobenzyl)-N-(2-(1,1-dioxidotetrahydro-2H-thiopyran-4-yl)ethyl)-3-(trifluoromethyl)-1H-pyrazole-5-carboxamide], the values for the 50% effective concentration (EC50) in assay [1] and in assay [3] were 223 nM and 148 nM, respectively. For the same compound, the “Max. Resp.” value in assay [2] is reported as 102%.
Turning to `Nc1cccc(F)c1CN(CCC1CCS(=O)(=O)CC1)C(=O)c1cc(C(F)(F)F)n[nH]1` [Example 91, N-(2-amino-6-fluorobenzyl)-N-(2-(1,1-dioxidotetrahydro-2H-thiopyran-4-yl)ethyl)-3-(trifluoromethyl)-1H-pyrazole-5-carboxamide], the values for the EC50 in assay [1] and in assay [3] were 47.3 nM and 20.3 nM, respectively.
As to `CCCN(CC)CCN(Cc1c(N)cccc1Cl)C(=O)c1cc(C(F)(F)F)n[nH]1` [Example 223, N-(2-chloro-6-aminobenzyl)-N-(2-(ethyl-propylamino)ethyl)-3-(trifluoromethyl)-1H-pyrazole-5-carboxamide], the EC50 in assay [1] was determined as 54 nM; in assay [3], 33.5 nM. In addition, the “Max. Resp.” value in assay [2] turned out to be 100%.
Consider `O=C(c1cc(C(F)(F)F)n[nH]1)N(Cc1ccccc1Cl)CC1CCN1` (stereo not drawn) [Example 227, N-(2-chlorobenzyl)-N-((azetidin-2-yl)methyl)-3-(trifluoromethyl)-1H-pyrazole-5-carboxamide], for which the results for the EC50 in assay [1] and in assay [3] were 1310 nM and 928 nM, respectively. The “Max. Resp.” value in assay [2] was 100%.
In the case of `Nc1cccc(Cl)c1CN(CCN1CCC(O)C1)C(=O)c1cc(C(F)(F)F)n[nH]1` (stereo not drawn) [Example 234, N-(2-amino-6-chlorobenzyl)-3-(trifluoromethyl)-N-(2-(3-hydroxypyrrolidin-1-yl)ethyl)-1H-pyrazole-5-carboxamide], the results for the EC50 in assay [1] and in assay [3] were 92.4 nM and 45.8 nM, respectively. Besides, the “Max. Resp.” value in assay [2] was determined as 100%.
In the case of `Nc1cccc(Cl)c1CN(CCN1CCCC(F)C1)C(=O)c1cc(C(F)(F)F)n[nH]1` (stereo not drawn) [Example 236, N-(2-amino-6-chlorobenzyl)-3-(trifluoromethyl)-N-(2-(3-fluoropiperidin-1-yl)ethyl)-1H-pyrazole-5-carboxamide], the values for the EC50 in assay [1] and in assay [3] were 33 nM and 8.1 nM, respectively. Also, the “Max. Resp.” value in assay [2] is listed as 73%.
Regarding `Nc1cccc(Cl)c1CN(CCN1CCCOCC1)C(=O)c1cc(C(F)(F)F)n[nH]1` [Example 239, N-(2-(1,4-oxazepan-4-yl)ethyl)-N-(2-amino-6-chlorobenzyl)-3-(trifluoromethyl)-1H-pyrazole-5-carboxamide], the EC50 in assay [1] is 129 nM; in assay [3] it was 73.1 nM. Besides, the “Max. Resp.” value in assay [2] is reported as 100%.
As to `Nc1cccc(Cl)c1CN(CCN1CC[C@@H](F)C1)C(=O)c1cc(C(F)(F)F)n[nH]1` [Example 242, N-(2-amino-6-chlorobenzyl)-3-(trifluoromethyl)-N-(2-((R)-3-fluoropyrrolidin-1-yl)ethyl)-1H-pyrazole-5-carboxamide], the “Max. Resp.” value in assay [2] is 100%.
In the case of `Nc1cccc(Cl)c1CN(CCN1CCCC(F)CC1)C(=O)c1cc(C(F)(F)F)n[nH]1` (stereo not drawn) [Example 243, N-(2-amino-6-chlorobenzyl)-N-(2-(4-fluoroazepan-1-yl)ethyl)-3-(trifluoromethyl)-1H-pyrazole-5-carboxamide], the “Max. Resp.” value in assay [2] was determined as 100%.
For `O=C(c1cc(Cl)n[nH]1)N(Cc1ccc(O)cc1F)CC1CCC1` [Example 244, N-(2-fluoro-4-hydroxybenzyl)-3-chloro-N-(cyclobutylmethyl)-1H-pyrazole-5-carboxamide], in assay [4], the EC50 was determined as 450 ± 180 nM. Further, in assay [2], the Emax worked out at 107 ± 10% and the “Maximal PKM2 activity” value is “approximately 600%”. In assay [2] (setting [6]), the AC50 is 62 ± 23 nM. For the same compound, the EC50 in assay [5] is 300 ± 70 nM.
On to `O=C(c1cc(Br)n[nH]1)N(Cc1ccc(O)cc1F)CC1CCC1` [Example 245], for which the “Max. Resp.” value in assay [2] stood at 100%.
For the compound `O=C(c1cc(C2CC2)n[nH]1)N(Cc1ccc(O)cc1F)CC1CCC1` [Example 246], the “Max. Resp.” value in assay [2] is recorded as 85%. Moreover, the AC50 in assay [2] (read-out: PKM2 AC50, 2 nM PKM2, 75 μM ADP, 15 μM PEP, Kinase Glo) turned out to be 92 nM.
On to `O=C(COP(=O)(O)O)[C@@H](O)[C@H](O)[C@H](O)COP(=O)(O)O` [FBP, fructose-1,6-bisphosphate, reference compound], for which, in assay [2], the Emax is 100% and the “Maximal PKM2 activity” value is listed as “approximately 600%”. Further, the AC50 in assay [2] (setting [6]) worked out at 23 ± 8 nM.
